How the values were obtained:
[1] = system: panel of human cancer cells; conditions: cells representative of most major organ systems; preclinical screening studies; cited from earlier work
[2] = ME-344 plasma pharmacokinetics, non-compartmental analysis; type: in vivo, human; conditions: for Cmax, Mean (%CV): ME-344 10 mg/kg 60-minute infusion
Procedure: Serial blood samples for ME-344 pharmacokinetic analyses were collected 5 min after the end of ME-344 infusion and at 1, 2, 3, 6 and 24 h after the completion of infusion on days 1 and 15 of cycle 1, and ME-344 plasma concentrations were determined using validated analytical methods. ME-344 pharmacokinetic parameters were estimated using actual sampling times by non-compartmental analysis.

solid tumors = system: solid tumors; parameters: method as in PMID 25411085; conditions: cited from earlier work
[3] = system: patients with ovarian and small cell lung cancer; parameters: method as in PMID 28283779; conditions: ME-344 at 10 mg/kg in combination with topotecan; cited from earlier work
[4] = system: early HER2-negative breast cancer; parameters: method as in PMID 31597662; conditions: mitochondrial on-target effect; cited from earlier work
[5] = system: PyMT breast cancer and Lewis lung carcinoma models; parameters: method as in PMID 27292634; conditions: in combination with TKIs; cited from earlier work

AUCinf, Mean (%CV) ([2]; Cycle 1 Day 1 (n = 17)): 23.0 (34%) µg×h/mL
AUClast, Mean (%CV) ([2]; Cycle 1 Day 1 (n = 17)): 22.6 (34%) µg×h/mL
Tmax, median (range) ([2]; Cycle 1 Day 1 (n = 17)): 1.08 [1.03 – 1.33] hours
Cmax, Mean (%CV) ([2]; Cycle 1 Day 1 (n = 17)): 12.60 (42%) µg/mL
AUCinf, Mean (%CV) ([2]; Cycle 1 Day 15 (n = 15)): 23.7 (38%) ^A µg×h/mL
AUClast, Mean (%CV) ([2]; Cycle 1 Day 15 (n = 15)): 22.4 (35%) ^A µg×h/mL
Half-life (terminal phase t1/2), Mean (%CV) ([2]; Cycle 1 Day 15 (n = 15)): 5.1 (38%) ^A h
Tmax, median (range) ([2]; Cycle 1 Day 15 (n = 18)): 1.17 [1.03 – 2.23] hours
Cmax, Mean (%CV) ([2]; Cycle 1 Day 15 (n = 18)): 11.83 (47%) µg/mL
pre-dose plasma concentrations ([2]; day 15): negligible
Compound: Cc1c(O)ccc2c1OC[C@@H](c1ccc(O)cc1)[C@H]2c1ccc(O)cc1 [ME-344]
antiproliferative activity [1]: broad antiproliferative activity
dose limiting toxicity (solid tumors; at higher doses than 10 mg/kg): peripheral neuropathy
recommended phase 2 dose (solid tumors; intravenously (IV) once weekly for 3 weeks in a 28-day cycle): 10 mg/kg
tolerability [3]: well tolerated
succinate dehydrogenase and HIF1α staining [4]: decrease
tumor control [5]: synergistic tumor control

Reference: article PMC11868331, “A Phase 1b study of the OxPhos inhibitor ME-344 with bevacizumab in refractory metastatic colorectal cancer” (Investigational New Drugs, 2024)
